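Results reflect a 48-hour exposure of cells in 96-well plates to compound at five concentrations. Definition used: TGI = concentration required for complete inhibition of growth.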
Assays:
Experiment in all cases: NCI-60 cell line screen, 48 h
[1] = test system: CAKI-1 renal
[2] = test system: CCRF-CEM leukemia
[3] = test system: COLO 205 colon
[4] = test system: IGROV1 ovarian
[5] = test system: NCI-H23 lung
[6] = test system: OVCAR-3 ovarian
[7] = test system: OVCAR-4 ovarian
[8] = test system: PC-3 prostate
[9] = test system: SF-539 CNS
[10] = test system: SK-MEL-5 melanoma
[11] = test system: SN12C renal
[12] = test system: SNB-19 CNS
[13] = test system: T-47D breast

SMILES	TGI [1] [µM]	TGI [2] [µM]	TGI [3] [µM]	TGI [4] [µM]	TGI [5] [µM]	TGI [6] [µM]	TGI [7] [µM]	TGI [8] [µM]	TGI [9] [µM]	TGI [10] [µM]	TGI [11] [µM]	TGI [12] [µM]	TGI [13] [µM]
COc1cc2c(cc1OC)-c1cc3ccccc3c(=O)n1CCC2	44.9	33.9	> 60.2	66	65.1	60.4	> 100	62.7	26	28	78.9	> 100	68.9
COC(=O)[C@]1(c2cc3ccccc3n2S(=O)(=O)c2ccccc2)CC2CCC1NC2 (some centres undefined)	29.4	56.8	29.7	33.7	40.1	33.1	48.3	24.5	32.2	26.4	29.4	28	27.2
COc1cc(CNC(=O)CCCCCCCC/C=C/Br)ccc1O	> 10	> 10	> 10	> 10	> 10	> 10	> 10	> 10	> 10	> 10	> 10	> 10	> 10
COC(=O)[C@]1(c2cc3ccccc3[nH]2)CC2CN(CC(=O)N(C)OC)C1C1OC(C)(C)OC21 (some centres undefined)	> 100	> 100	> 100	> 100	> 100	> 100	> 100	> 100	> 100	> 100	> 100	> 100	> 100
O=[N+]([O-])C(=C1Nc2ccccc2N1)C(Cl)=C(Cl)Cl	> 100	76	> 100	> 100	> 100	53.1	> 100	> 100	> 100	> 100	> 100	> 100	77.7
CC[C@H](CCCCC1CC[C@@H]2CC(=O)C[C@H]12)OC (some centres undefined)	> 100	> 100	> 100	> 100	> 100	> 100	> 100	> 100	> 100	> 100	> 100	> 100	> 100
Cc1ccc(S(=O)(=O)n2ccn3c(=O)cc(C)nc23)cc1	> 10	> 10	> 10	> 10	> 10	> 10	> 10	> 10	> 10	> 10	> 10	> 10	> 10
COC(=O)c1ccccc1CC1Cc2cc3c(cc2C1)CCC3	> 100	39.1	52.7	> 100	> 100	> 100	> 100	> 100	> 100	55.3	> 100	> 100	> 100

Source: PubChem BioAssay (NCI)
